Test results as given in patent US5773459A, “Urea- and thiourea-type compounds” (Sugen, Inc., priority 1995, dated 1998).
Where two headings read alike, the source gives them in different places.

Assays:
Format in all cases: cell-based
[1] = tested on: MCF7 human breast carcinoma cells; test: MCF-7 SRB Growth Assay; settings: read-out: GROWTH DATA: MCF7 10% FBS
Excerpt: (§1) The following examples illustrate the ability of the exemplary compounds to inhibit receptor tyrosine kinases, such as HER2 and/or EGFR. The following target cells were used for cellular kinase assays: NIH3T3 clone C7 (Honegger et al., supra) engineered to over-express human EGF receptor; NIH3T3 cells engineered to over-express a chimeric receptor containing the EGFR extracellular domain and the HER2 intracellular kinase domain; the human mammary carcinoma line BT474 (ATCC HTB2) expressing HER2; and the human glioblastoma line U1242 that expresses PDGFR-beta. Growth assays were carried out using human mammary epithelial SKBR3 (ATCC HTB30) cells (SKBR3 cells over-express HER2), SKOV3 (ATCC HTB77) human ovarian cancer cell line (SKOV3 cells also over-express HER2), A431 cells (A431 cells over-express EGFR) MCF7 human breast carcinoma cells, MCF7 cells overexpressing the HER2 kinase (MCF7-HER2), NIH3T3 cells, and NIH3T3 cells overexpressing the HER2 kinase (3T3-HER2.
MCF-7 cells are seeded at 2000 cells/ well in a 96-well flat bottom plate in normal growth media, which was 10% FBS/RPMI supplemented with 2 mM Glutamine. The plate of cells is incubated for about 24 hours at 37° C. after which it receives an equal volume of compound dilution per well making the total volume per well 200 μl. The compound is prepared at 2 times the desired highest final concentration and serially diluted in the normal growth media in a 96-well round bottom plate and then transferred to plate of cells. DMSO serves as the vector control up to 0.2% as final concentration. The cells are then incubated at 37° C. in a humidified 5% CO2 incubator.
Four days following dosing of compound, the media is 15 discarded and 200 μl/well of ice-cold 10% TCA (Trichloroacetic Acid) is added to fix cells. After 60 minutes at 4° C., the TCA is discarded and the plate is rinsed 5 times with water. The plate is then air-dried and 100 μl/well of 0.4% SRB (Sulforhodamine B from Sigma) 20 in 1% Acetic Acid is added to stain cells for 10 minutes at room temperature. The SRB is discarded and the plate is rinsed 5 times with 1% Acetic Acid. After the plate is completely dried, 100 μl/well of 10 mM Tris-base is added to solubilize the dye. After 5 to 10 minutes, the plate is read on a Dynatech ELISA Plate Reader at dual wavelengths at 570 nm and 630 nm.

[2] = tested on: MCF7 cells overexpressing the HER2 kinase (MCF7-HER2); test: MCF-7/HER-2 SRB Growth Assay; settings: Homo sapiens, read-out: GROWTH DATA: MCF7-HER2 0.5% FBS
Excerpt: as §1
MCF-7/HER-2 SRB Growth Assay
The protocol is basically the same as that above (for the MCF-7 Growth Assay) except that immediately before the 30 compound is added, the normal growth media is removed and 0.5% FBS/RPMI supplemented with 2 mM Glutamine is added onto the cells. The compound is also prepared in this 0.5% serum media. The plate of cells is incubated for four days and developed as usual.

[3] = tested on: NIH3T3 cells overexpressing the HER2 kinase (3T3-HER2); test: 3T3 Growth Assay (HER2-overexpressing 3T3 cells, SRB); settings: Mus musculus
Excerpt: as §1
The 3T3 growth assay was carried out as follows: […]
(1) HER2C7 (engineered to express HER2) and NIH3T3C7 (as the control) cells are used for this assay. […] Cells are incubated at 37° C., 5% CO2 overnight to allow for cell attachment to the plate;
(2) The […] compound is added to the cells at day 2. […] A total of 100 μl/well medium of the diluted compounds is added into the cells. The total volume of each well is 200 μl. Quadruplicates (wells) and 11 concentration points are applied to each compound tested.
(3) After the cells are treated with the compound for 4 days, the cells are washed with PBS and fixed with 200 μl/well ice-cold 10% TCA for one hour at 0°-5° C. condition.
(4) Remove TCA and rinse wells 5 times with deionized water. Dry plates upside down with paper towels. Stain cells with 0.4% SRB at 100 μl well for 10 minutes.
(5) Pour off SRB and rinse plate 5 times with 1% acetic acid. Dry plate completely.
(6) Solubilize the dye with 10 mM Tris-base at 100 μl/well for 10 minutes on a shaker.
(7) Read the plate at dual wavelengths at 570 nm and 630 nm on Dynatech Elisa plate reader.

HER2 = target: T1, HER2 (Homo sapiens, UniProt P04626); test: HER2-ELISA, HER2-BT474 assay measuring whole cell HER2 activity
T1 construct: a human breast tumor cell line which expresses high levels of HER2 kinase; host or cells: BT-474 human breast tumor cells
T1 sequence (P04626 23-1255): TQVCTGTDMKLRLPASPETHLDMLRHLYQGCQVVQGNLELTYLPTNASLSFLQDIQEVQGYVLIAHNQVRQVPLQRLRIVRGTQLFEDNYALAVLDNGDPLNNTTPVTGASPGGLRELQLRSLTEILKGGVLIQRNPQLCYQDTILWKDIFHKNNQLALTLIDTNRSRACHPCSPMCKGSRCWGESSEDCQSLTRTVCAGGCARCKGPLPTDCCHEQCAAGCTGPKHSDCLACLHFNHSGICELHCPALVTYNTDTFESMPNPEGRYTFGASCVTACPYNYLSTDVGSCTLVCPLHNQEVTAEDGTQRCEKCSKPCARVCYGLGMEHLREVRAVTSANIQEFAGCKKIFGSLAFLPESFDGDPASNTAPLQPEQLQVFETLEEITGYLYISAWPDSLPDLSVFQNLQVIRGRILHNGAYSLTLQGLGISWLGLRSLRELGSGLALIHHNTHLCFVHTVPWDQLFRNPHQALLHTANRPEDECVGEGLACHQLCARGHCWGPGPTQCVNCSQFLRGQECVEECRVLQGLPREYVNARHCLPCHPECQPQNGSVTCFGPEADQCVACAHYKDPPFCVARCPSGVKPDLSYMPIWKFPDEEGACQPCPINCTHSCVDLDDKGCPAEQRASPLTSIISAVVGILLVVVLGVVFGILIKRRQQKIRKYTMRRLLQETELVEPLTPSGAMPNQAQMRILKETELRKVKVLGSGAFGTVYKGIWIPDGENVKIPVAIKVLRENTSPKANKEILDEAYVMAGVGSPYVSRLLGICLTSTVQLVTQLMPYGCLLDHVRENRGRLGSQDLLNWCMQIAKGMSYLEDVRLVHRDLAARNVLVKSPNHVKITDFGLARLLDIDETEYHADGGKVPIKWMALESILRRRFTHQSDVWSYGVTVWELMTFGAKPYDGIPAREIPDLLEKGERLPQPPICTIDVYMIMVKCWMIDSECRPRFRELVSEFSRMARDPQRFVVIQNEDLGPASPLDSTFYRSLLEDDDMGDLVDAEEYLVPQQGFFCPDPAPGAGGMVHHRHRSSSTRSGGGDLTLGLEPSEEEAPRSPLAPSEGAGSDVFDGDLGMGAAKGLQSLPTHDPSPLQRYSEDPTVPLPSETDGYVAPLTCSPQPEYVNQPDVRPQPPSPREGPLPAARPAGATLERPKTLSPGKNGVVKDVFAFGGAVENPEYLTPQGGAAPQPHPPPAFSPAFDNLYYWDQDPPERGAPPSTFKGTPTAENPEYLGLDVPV
Description: Growth assays were carried out using human mammary epithelial SKBR3 (ATCC HTB30) cells (SKBR3 cells over-express HER2), SKOV3 (ATCC HTB77) human ovarian cancer cell line (SKOV3 cells also over-express HER2), A431 cells (A431 cells over-express EGFR) MCF7 human breast carcinoma cells, MCF7 cells overexpressing the HER2 kinase (MCF7-HER2), NIH3T3 cells, and NIH3T3 cells overexpressing the HER2 kinase (3T3-HER2.
HER2-BT474 assays measuring whole cell HER2 activity was carried out as described below:
2. […] The growth media is RPMI+10% FBS+GMS-G (Gibco supplement)+Glutamine.
3. A monoclonal anti-HER2 antibody is used in ELISA.
Incubate the cells in 5% CO2 at 37° C. overnight.
2. ELISA Plate Coating and Blocking
The antibody coated plates can be used up to 2 weeks, when stored at 4° C.
(b) On the day of use, remove the coating solution, replace with 200 μl of Blocking Buffer, shake the plate, and then remove the blocking buffer and wash the plate just before adding lysate.
(a) […] the drugs in serum-free condition. Before adding drugs, the old media
(b) Dilute drug stock (in 100% DMSO) 1:10 with RPMI, and transfer 10 μl/well of this solution to the cells to achieve a final drug DMSO concentration at 1%. Incubate the cells in 5% CO2 at 37° C.
(c) Prepare fresh cell lysis buffer (HNTG*)
(d) After drug preincubation for two hours remove all the solution from the plate, transfer HNTG* 100 μl/well to the cells, and shake for 10 minutes.
(e) Use a 12-channel pipette to scrape the cells from the plate, and homogenize the lysate by repeat aspiration and dispensing. Transfer all the lysate to the ELISA plate and shake for 1 hour.
(f) Remove the lysate, wash the plate, add anti-pTyr (1:3,000 with TBST) 100 μl/well, and shake for 30 minutes.
(g) Remove anti-pTyr, wash the plate, add goat anti-rabbit IgG conjugated antibody (1:5,000 with TBST) 100 μl/well, and shake for 30 minutes.
(h) Remove anti-rabbit IgG antibody, wash the plate, and add fresh ABTS/H2 O2 (1.2 μl 30% H2 O2 in 10 ml ABTS) 100 μl/well to the plate to start color development, which usually takes 20 minutes.

[4] = read-out: GROWTH DATA: 3T3/HER2 2% FBS
[5] = read-out: GROWTH DATA: 3T3/HER2 10% FBS
[6] = BT474 cells, read-out: ELISA DATA: HER2 - (BT474)

| SMILES | IC50 [1] [nM] | IC50 [2] [nM] | IC50 [3, 4] [nM] | IC50 [3, 5] [nM] | IC50 (HER2; [6]) [nM] | IC50 (HER2) [nM] |
| --- | --- | --- | --- | --- | --- | --- |
| CC(C)S(=O)(=O)c1csc(NC(=O)Nc2cc(C(F)(F)F)cc(C(F)(F)F)c2)c1Cl [Example Z2, N-[3-Chloro-4-(isopropylsulfonyl)thien-2-yl]-N'-(3,5-di-trifluoromethylphenyl)urea] | 1000 | 300 | 600 | 18000 | 3200 |  |
| N#Cc1ccc(NC(=S)Nc2ccc(S(=O)(=O)N3CCCCC3)cc2)cc1 [Example Z4, N-(4-Cyanophenyl)-N'-[4-[(piperid-1-yl)sulfonyl]phenyl]thiourea] | 3000 | 1000 |  |  | 9300 |  |
| O=C(Nc1ccc(SC(F)(F)F)cc1)Nc1ccc(Oc2ccc(Cl)cc2Cl)nc1 [Example Z3] | 2000 | 200 | 350 | 18000 |  | 9900 |
| CC(C)S(=O)(=O)c1csc(NC(=O)Nc2ccc(C(C)(C)C)cc2)c1Cl [Example Z1, N-[3-Chloro-4-(isopropylsulfonyl)thien-2-yl]-N'-(4-t-butylphenyl)urea] | 5000 | 900 | 1000 | 15000 | 11800 |  |
